Source: ChEMBL document CHEMBL4033646, “Structure of a Myeloid cell leukemia-1 (Mcl-1) inhibitor bound to drug site 3 of Human Serum Albumin” (Bioorg Med Chem, 2017)

What was measured:
[1] = target: T1, Induced myeloid leukemia cell differentiation protein Mcl-1 (Homo sapiens, UniProt Q07820); experiment: Inhibition of FITC-Bak-BH3 binding to recombinant MBP-fused MCL1 (172 to 318 residues) (unknown origin) in presence of 1% FBS by TR-FRET assay
[2] = target: T1, Induced myeloid leukemia cell differentiation protein Mcl-1; experiment: Inhibition of FITC-Bak-BH3 binding to recombinant MBP-fused MCL1 (172 to 318 residues) (unknown origin) by TR-FRET assay

T1 sequence (Q07820 whole entry, the tested form may be a part): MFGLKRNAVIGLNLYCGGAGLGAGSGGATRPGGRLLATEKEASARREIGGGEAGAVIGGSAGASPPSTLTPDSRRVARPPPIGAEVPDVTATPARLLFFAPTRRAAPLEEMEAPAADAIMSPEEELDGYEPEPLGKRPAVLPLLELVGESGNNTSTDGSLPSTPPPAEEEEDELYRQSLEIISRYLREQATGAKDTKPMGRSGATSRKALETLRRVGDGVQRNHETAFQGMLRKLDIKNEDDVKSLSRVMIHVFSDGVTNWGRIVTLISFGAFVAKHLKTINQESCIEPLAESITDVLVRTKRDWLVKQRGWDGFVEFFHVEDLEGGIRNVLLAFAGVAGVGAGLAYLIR

Compound | Ki [1] | Ki [2]
Cc1cc(OCCCc2c(C(=O)O)[nH]c3c(-c4c(CN5CCCCC5)nn(C)c4C)cccc23)cc(C)c1Cl | 73 nM | 22 nM
Cc1cc(OCCCc2c(C(=O)O)[nH]c3c(-c4c(COCCN(C)C)nn(C)c4C)cccc23)cc(C)c1Cl | 32 nM | 20 nM
Cc1cc(OCCCc2c(C(=O)O)[nH]c3c(-c4c(C)nn(C)c4C)cccc23)cc(C)c1Cl | 262 nM | 48 nM
